Measurements as given in US20230128137A1, “BENZO FIVE-MEMBERED CYCLIC COMPOUND” (MEDSHINE DISCOVERY INC., priority 2020, published 2023).
Where two headings read alike, the source gives them in different places.

Tests used:
[1] = tested on: RS4;11 cells; experiment: CTG (CellTiter-Glo) test of inhibition of RS4;11 cell proliferation; format: cell-based; conditions: Homo sapiens, 72 hours incubation
Protocol: 2.1 Experimental objectives: To obtain the IC50 value of the test compound in RS4;11 cell lines;
2.2 incubation time: 72 hours;
2.3 experimental method: CTG (Cell Titer-Glo™ Luminescent Cell Viability Assay);
a. when the cells were fused to 80%, the cells were collected and counted;
b. RS4; 11 cell suspension was diluted to 5000 cells/well and 20 uls of cell suspension was seeded in each well of 384-well plate;
c. the cell plates were placed back to 37° C. and incubated in a 5% carbon dioxide incubator for 24 hours;
d. the test compound was prepared into DMSO solution, and 5 μL of each was added to the designated well of the test plate, and the final concentration of DMSO solution was 0.5%;
e. initiation cell viability was detected by CTG;
f. the test plate was put back into the incubator and incubated for another 72 hours;
g. after 72 hours incubation, CellTiter-Glo™ luminescent cell viability assay was completed according to the manufacturer's manual;

[2] = Liver microsome metabolic stability in vitro, human; format: in vitro ADME; conditions: human liver microsomes
Protocol: (§1) 3.2 preparation of nicotinamide adenine dinucleotide phosphate cofactor solution: an appropriate amount of NADPH powder was weighed and diluted into 10 mM magnesium chloride solution (working solution concentration: 10 unit/mL; final concentration of reaction system: 1 unit/mL);
(§2) 3.3 preparation of liver microsomes: an appropriate concentration working solution of liver microsomes (human, SD rat, CD-1 mouse, beagle dog) was prepared in 100 mM potassium phosphate buffer;
(§3) 3.4 preparation of quenching solution: cold (4° C.) acetonitrile containing 200 ng/mL tolbutamide and 200 ng/mL labetalol as internal standard (IS) was used as quenching solution;
(§4) 3.5 experimental operation:
(§5) a. empty “incubation” plates T60 and NCF60 were preheated for 10 minutes;
(§6) b. the liver microsomes were diluted to 0.56 mg/mL with 100 mM phosphate buffer;
(§7) c. 445 μL of microsomal working solution (0.56 mg/mL) was transferred to the preheated “incubation” plates T60 and NCF60, and then the“incubation” plates T60 and NCF60 were preincubated for 10 min with continuous shaking at 37° C. 54 μL of liver microsomes were transferred to a blank plate, and 6 μL of NAPDH cofactor was added to the blank plate, and then 180 μL of quenching solution was added thereto;
(§8) e. for NCF60 plate, 50 μL of buffer was added thereto and the mixture was fully mixed for three times. Timing was started; the plate was shaken at 37° C. for 60 minutes;
(§9) f. in “quenching” plate TO, 180 μL of quenching solution and 6 μL of NAPDH cofactor were addded to make sure that the plate was cooled down to prevent evaporation;
(§10) g. for T60 plates, the mixture was fully mixed for three times, and 54 μL of mixture was immediately transferred to the “quenching” plate at the 0 min time point. 44 μL of NAPDH cofactor was then added to the culture plate (T60). Timing was started; the plate was shaken at 37° C. for 60 minutes;
(§11) h. at 5, 10, 20, 30 and 60 min, 180 μL of quenching solution was added to the “quenching” plate, and the mixture was mixed for one time, and 60 μL of sample was continuously transferred from the T60 plate to the “quenching” plate at each time point;
(§12) i. for NCF60: the mixture was mixed for one time, and 60 μL of sample was transferred from the NCF60 culture dish to the “quenching” plate containing quenching solution at 60 minutes time point;
(§13) j. all sampling plates were shaked for 10 minutes, then centrifuged at 4000 rpm for 20 minutes at 4° C.;
(§14) k. 60 μL of supernatant was transferred into 180 μL of HPLC water and stirred with a plate shaker for 10 min;
(§15) 1. before LC-MS/MS analysis, each bioanalysis plate was sealed and shaked for 10 minutes.

[3] = Liver microsome metabolic stability in vitro, SD rat; format: in vitro ADME; conditions: SD rat liver microsomes
Protocol: as §1, §2, §3, §4, §5, §6, §7, §8, §9, §10, §11, §12, §13, §14, §15

[4] = Liver microsome metabolic stability in vitro, CD-1 mouse; format: in vitro ADME; conditions: CD-1 mouse liver microsomes
Protocol: as §1, §2, §3, §4, §5, §6, §7, §8, §9, §10, §11, §12, §13, §14, §15

[5] = Liver microsome metabolic stability in vitro, beagle dog; format: in vitro ADME; conditions: beagle dog liver microsomes
Protocol: as §1, §2, §3, §4, §5, §6, §7, §8, §9, §10, §11, §12, §13, §14, §15

[6] = In vivo pharmacokinetic property evaluation in CD-1 mice (IV and PO); conditions: mouse, plasma; for MRT last: read-out: MRT0-last
Protocol: The in vivo pharmacokinetic properties of compound 2 were evaluated in CD-1 mice by intravenous administration and oral administration. IV (intravenous injection) refers to slow administration in jugular vein, and PO (oral administration) refers to administration by gavage. Formulations for intravenous and gavage administration were both 2.5% dimethylsulfoxide, 5% ethanol, 10% cremophor EL, 20% glucose solution (concentration of 5%), 62.5% water. PK time points in the intravenous injection group were 5 min, 15 min, 30 min, 1 h, 2 h, 4 h, 8 h, 12 h and 24 h after administration, respectively, and PK time points in the gastric administration group were 15 min, 30 min, 1 h, 2 h, 4 h, 8 h and 24 h after administration, respectively. Approximately 0.03 mL of blood was collected at each time point. Blood from each sample was transferred to a plastic microcentrifuge tube containing EDTA-K2, centrifuged at 4000 rpm for 5 min in a 4° C. centrifuge, and plasma was collected within 15 min, and the plasma samples were stored in polypropylene tubes. Before the test, samples were stored in a refrigerator at −75±15° C. The concentration of compounds in plasma samples was analyzed using the LCMS/MS method and the following pharmacokinetic parameters were calculated using WinNonlin software (Phoenix™, version 6.1): IV: C0, Cl, Vd, T1/2, AUC0-last, MRT0-last, regression points; PO: Cmax, Tmax, T1/2, AUC0-last, MRT0-last, regression points. Pharmacokinetic data were described using descriptive statistics, such as mean, standard deviation.

Question: With `CC1(C)CCC(CN2CCN(c3ccc(C(=O)NS(=O)(=O)c4cc([N+](=O)[O-])c(NCC5CCOCC5)c5[nH]cnc45)c(Oc4cnc5[nH]ccc5c4)c3)CC2)=C(c2ccc(Cl)cc2)C1` [Compound 2] as the compound, how does the IC50 [1] read?
Answer: 2.7 nM

Question: And the “Remaining (T = 60 min)” value ([2]; 60 min incubation)?
Answer: 45.6%

Question: And the CLint scaled at 1 µM ([2]; human)?
Answer: 23.9 mL/min/kg

Question: What about the half-life at 1 µM ([2]; human) of the same compound?
Answer: 0.87 h

Question: And the CLint scaled at 1 µM [3]?
Answer: 23.6 mL/min/kg

Question: And the half-life at 1 µM [3]?
Answer: 1.76 h

Question: And the “Remaining (T = 60 min)” value ([3]; 60 min incubation)?
Answer: 64.1%

Question: And the CLint scaled at 1 µM [4]?
Answer: 79.7 mL/min/kg

Question: And the half-life at 1 µM [4]?
Answer: 1.15 h

Question: What about the “Remaining (T = 60 min)” value ([4]; 60 min incubation) of the same compound?
Answer: 54.6%

Question: And the CLint scaled at 1 µM [5]?
Answer: 26.8 mL/min/kg

Question: What about the half-life at 1 µM [5] of the same compound?
Answer: 1.24 h

Question: What about the “Remaining (T = 60 min)” value ([5]; 60 min incubation) of the same compound?
Answer: 52%

Question: What about the AUC(0-t) ([6]; 1 mg/kg, IV, 1 mpk) of the same compound?
Answer: 1.8 µM·h

Question: And the C0 ([6]; 1 mg/kg, IV, 1 mpk)?
Answer: 11.7 µM

Question: What about the clearance ([6]; 1 mg/kg, IV, 1 mpk) of the same compound?
Answer: 10.2 mL/min/kg

Question: What about the half-life ([6]; 1 mg/kg, IV, 1 mpk) of the same compound?
Answer: 3.35 h

Question: And the MRT last ([6]; 1 mg/kg, IV, 1 mpk)?
Answer: 1.21 h

Question: And the Vd ([6]; 1 mg/kg, IV, 1 mpk, read-out: Vdss)?
Answer: 0.834 L/kg

Question: And the AUC(0-t) ([6]; 50 mg/kg, PO, 50 mpk)?
Answer: 12.8 µM·h

Question: What about the Cmax ([6]; 50 mg/kg, PO, 50 mpk) of the same compound?
Answer: 1.79 µM

Question: What about the Tmax ([6]; 50 mg/kg, PO, 50 mpk) of the same compound?
Answer: 3 h

Question: What about the half-life ([6]; 50 mg/kg, PO, 50 mpk) of the same compound?
Answer: 4.1 h

Question: And the MRT last ([6]; 50 mg/kg, PO, 50 mpk)?
Answer: 6.22 h
